Assay results published in patent publication US20030189958A1 (priority 2000, published 2003).
Where two headings read alike, the source gives them in different places.

Columns and labels:
Phytophthora infestans = format: in vivo; details: solo compound
Plasmopara viticola = test: Activity against Plasmopara viticola on grape (cv Gutedel) leaf discs (Example B-2); details: solo compound
Source text: The action to be expected E for a given active ingredient combination obeys the so-called COLBY formula and can be calculated as follows (COLBY, S. R. “Calculating synergistic and antagonistic responses of herbicide combination”. Weeds, Vol. 15, pages 20-22; 1967):
According to COLBY, the expected (additive) action of active ingredients A)+B) using p+q ppm of active ingredient is [formula]
If the action actually observed (O) is greater than the expected action (E), then the action of the combination is super-additive, i.e. there is a synergistic effect. In mathematical terms the synergism factor SF corresponds to O/E. In the agricultural practice an SF of ≧1.2 indicates significant improvement over the purely complementary addition of activities (expected activity), while an SF of ≦0.9 in the practical application routine signals a loss of activity compared to the expected activity.
The efficacy of the mixtures against Plasmopara viticola may be determined in micro scale on grape leaf discs in 24-well plates (repeated on 4 discs per variation). […] The inoculation is done by spraying the sporangial suspension (70 000 sp/ml) on the lower leaf side. The infected (sporulating) area of each leaf disc is measured 7-8 days after incubation (under standard conditions in a climatic chamber +18° C., 12 hours day/night cycle) as a %-value of the total leaf disc area. The activity is calculated as a %-value relative to the disease rate on fully infected, untreated grape leave discs. The expected fungicide interactions of the components in the mixtures (E-values) are calculated according to the method of Colby.

Q: What does the source list for `O=[N+]([O-])c1cc(C(F)(F)F)c(Cl)c([N+](=O)[O-])c1Nc1ncc(C(F)(F)F)cc1Cl` [III, fluazinam]?
A: observed activity (O in %) (Phytophthora infestans; 0.025 ppm): 0%; observed activity (O in %) (Phytophthora infestans; 0.05 ppm): 0%; observed activity (O in %) (Phytophthora infestans; 0.5 ppm): 29%

Q: For `COCC(=O)N(c1c(C)cccc1C)[C@H](C)C(=O)OC` [IIa, metalaxyl-M], which “observed activity (O in %)” value (Plasmopara viticola; 0.025 ppm) is on record?
A: 3%

Q: And the “observed activity (O in %)” value (Plasmopara viticola; 0.05 ppm)?
A: 5%

Q: And the “observed activity (O in %)” value (Plasmopara viticola; 0.1 ppm)?
A: 9%

Q: For `COc1ccc(C(=CC(=O)N2CCOCC2)c2ccc(Cl)cc2)cc1OC` [IX, dimethomorph], which “observed activity (O in %)” value (Plasmopara viticola; 0.01 ppm) is on record?
A: 0%

Q: What about the “observed activity (O in %)” value (Plasmopara viticola; 0.05 ppm) of the same molecule?
A: 14%

Q: What about the “observed activity (O in %)” value (Plasmopara viticola; 1 ppm) of the same molecule?
A: 62%

Q: How did the “observed activity (O in %)” value (Phytophthora infestans; 0.5 ppm) turn out when `N#Cc1c(Cl)c(Cl)c(Cl)c(C#N)c1Cl` [V, chlorothalonil] was run?
A: 0%

Q: With `CO/C=C(/C(=O)OC)c1ccccc1Oc1cc(Oc2ccccc2C#N)ncn1` [VIa, azoxystrobin] as the molecule, how does the “observed activity (O in %)” value (Plasmopara viticola; 0.01 ppm) read?
A: 0%

Q: For `CCNC(=O)NC(=O)C(C#N)=NOC` [XI, cymoxanil], which “observed activity (O in %)” value (Plasmopara viticola; 0.01 ppm) is on record?
A: 0%

Q: What about the “observed activity (O in %)” value (Plasmopara viticola; 0.025 ppm) of the same molecule?
A: 8%

Q: With mancozeb [IV] as the molecule, how does the “observed activity (O in %)” value (Plasmopara viticola; 0.25 ppm) read?
A: 3%

Q: What about the “observed activity (O in %)” value (Plasmopara viticola; 0.5 ppm) of the same molecule?
A: 15%
